Data taken from patent US7118895B2, “Process for producing aglycon by using diglycosidase and flavor-improved food containing the aglycon and converting agent to be used in the process” (Amano Enzyme Inc., priority 2000, dated 2006).
Each block holds one compound with its values, some of them ahead of it.

System: Crude diglycosidase
Assay: Examination of temperature in the conversion into isoflavone aglycons by diglycosidase using soybean materials
Assay type: biochemical, Penicillium multicolor IAM7153
Design: Decomposition efficiency of glycitin family in roasted soy flour / Decomposition efficiency of daidzin family in roasted soy flour / Decomposition efficiency of genistin family in soymilk / Decomposition efficiency of daidzin family in soymilk / Decomposition efficiency of glycitin family in defatted soybean / Decomposition efficiency of daidzin family in defatted soybean: concentration or dose not given beside the values
Conditions: for maximum isolation of aglycons: reaction at 55° C. for 6 hours
Procedure, shortened: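 Temperature series (30-80° C.) of crude diglycosidase, diluted to 1.88 AU/mL in 20 mM acetate pH 4.0, acting on roasted soy flour, soymilk, defatted soybean or soy protein concentrate. Samples quenched with ethanol after 0-6 h, centrifuged, filtered and analyzed by HPLC for glycosides versus aglycons.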

[1] = 30° C., heat treatment of enzyme no, reaction time 0 h
[2] = 30° C., heat treatment of enzyme no, reaction time 1 h
[3] = 30° C., heat treatment of enzyme no, reaction time 3 h
[4] = 30° C., heat treatment of enzyme no, reaction time 6 h
[5] = 30° C., heat treatment of enzyme yes, reaction time 6 h
[6] = 45° C., heat treatment of enzyme no, reaction time 0 h
[7] = 45° C., heat treatment of enzyme no, reaction time 1 h
[8] = 45° C., heat treatment of enzyme no, reaction time 3 h
[9] = 45° C., heat treatment of enzyme no, reaction time 6 h
[10] = 45° C., heat treatment of enzyme yes, reaction time 6 h
[11] = 45 °C, heat treatment of enzyme: no, 0 h
[12] = 45 °C, heat treatment of enzyme: no, 1 h
[13] = 45 °C, heat treatment of enzyme: no, 3 h
[14] = 45 °C, heat treatment of enzyme: no, 6 h
[15] = 45 °C, heat treatment of enzyme: yes, 6 h
[16] = 55° C., heat treatment of enzyme no, reaction time 0 h
[17] = 55° C., heat treatment of enzyme no, reaction time 1 h
[18] = 55° C., heat treatment of enzyme no, reaction time 3 h
[19] = 55° C., heat treatment of enzyme no, reaction time 6 h
[20] = 55° C., heat treatment of enzyme yes, reaction time 6 h
[21] = 55 °C, heat treatment of enzyme: no, 0 h
[22] = 55 °C, heat treatment of enzyme: no, 1 h
[23] = 55 °C, heat treatment of enzyme: no, 3 h
[24] = 55 °C, heat treatment of enzyme: no, 6 h
[25] = 55 °C, heat treatment of enzyme: yes, 6 h
[26] = 65° C., heat treatment of enzyme no, reaction time 0 h
[27] = 65° C., heat treatment of enzyme no, reaction time 1 h
[28] = 65° C., heat treatment of enzyme no, reaction time 3 h
[29] = 65° C., heat treatment of enzyme no, reaction time 6 h
[30] = 65° C., heat treatment of enzyme yes, reaction time 6 h
[31] = 65 °C, heat treatment of enzyme: no, 0 h
[32] = 65 °C, heat treatment of enzyme: no, 1 h
[33] = 65 °C, heat treatment of enzyme: no, 3 h
[34] = 65 °C, heat treatment of enzyme: no, 6 h
[35] = 65 °C, heat treatment of enzyme: yes, 6 h
[36] = 80° C., heat treatment of enzyme no, reaction time 0 h
[37] = 80° C., heat treatment of enzyme no, reaction time 1 h
[38] = 80° C., heat treatment of enzyme no, reaction time 3 h
[39] = 80° C., heat treatment of enzyme no, reaction time 6 h
[40] = 80° C., heat treatment of enzyme yes, reaction time 6 h
[41] = 80 °C, heat treatment of enzyme: no, 0 h
[42] = 80 °C, heat treatment of enzyme: no, 1 h
[43] = 80 °C, heat treatment of enzyme: no, 3 h
[44] = 80 °C, heat treatment of enzyme: no, 6 h
[45] = 80 °C, heat treatment of enzyme: yes, 6 h

SMILES: O=c1c(-c2ccc(O)cc2)coc2cc(O[C@@H]3O[C@H](CO)[C@@H](O)[C@H](O)[C@H]3O)ccc12 [daidzin]
Decomposition efficiency of daidzin family in concentrated soybean protein [1]: 52.3%
Decomposition efficiency of daidzin family in defatted soybean [1]: 42.2%
Decomposition efficiency of daidzin family in concentrated soybean protein [2]: 29.5%
Decomposition efficiency of daidzin family in defatted soybean [2]: not detected
Decomposition efficiency of daidzin family in concentrated soybean protein [3]: 13.4%
Decomposition efficiency of daidzin family in defatted soybean [3]: not detected
Decomposition efficiency of daidzin family in concentrated soybean protein [4]: 4.0%
Decomposition efficiency of daidzin family in defatted soybean [4]: not detected
Decomposition efficiency of daidzin family in concentrated soybean protein [5]: 54.5%
Decomposition efficiency of daidzin family in defatted soybean [5]: not detected
Decomposition efficiency of daidzin family in soymilk (30 °C, heat treatment of enzyme: no, 0 h): 34.1%
Decomposition efficiency of daidzin family in soymilk (30 °C, heat treatment of enzyme: no, 1 h): not detected
Decomposition efficiency of daidzin family in soymilk (30 °C, heat treatment of enzyme: no, 3 h): not detected
Decomposition efficiency of daidzin family in soymilk (30 °C, heat treatment of enzyme: no, 6 h): not detected
Decomposition efficiency of daidzin family in soymilk (30 °C, heat treatment of enzyme: yes, 6 h): 34.8%
Decomposition efficiency of daidzin family in roasted soy flour (35 °C, heat treatment of enzyme: no, 0 h): 48.6%
Decomposition efficiency of daidzin family in roasted soy flour (35 °C, heat treatment of enzyme: no, 1 h): 11.7%
Decomposition efficiency of daidzin family in roasted soy flour (35 °C, heat treatment of enzyme: no, 3 h): not detected
Decomposition efficiency of daidzin family in roasted soy flour (35 °C, heat treatment of enzyme: no, 6 h): not detected
Decomposition efficiency of daidzin family in roasted soy flour (35 °C, heat treatment of enzyme: yes, 6 h): 50.3%
Decomposition efficiency of daidzin family in concentrated soybean protein [6]: 52.4%
Decomposition efficiency of daidzin family in defatted soybean [6]: 40.5%
Decomposition efficiency of daidzin family in concentrated soybean protein [7]: 10.6%
Decomposition efficiency of daidzin family in defatted soybean [7]: not detected
Decomposition efficiency of daidzin family in concentrated soybean protein [8]: 9.6%
Decomposition efficiency of daidzin family in defatted soybean [8]: not detected
Decomposition efficiency of daidzin family in concentrated soybean protein [9]: 1.7%
Decomposition efficiency of daidzin family in defatted soybean [9]: not detected
Decomposition efficiency of daidzin family in concentrated soybean protein [10]: 94.3%
Decomposition efficiency of daidzin family in defatted soybean [10]: not detected
Decomposition efficiency of daidzin family in roasted soy flour [11]: 48.6%
Decomposition efficiency of daidzin family in soymilk [11]: 33.9%
Decomposition efficiency of daidzin family in roasted soy flour [12]: 3.6%
Decomposition efficiency of daidzin family in soymilk [12]: 6.8%
Decomposition efficiency of daidzin family in roasted soy flour [13]: 2.7%
Decomposition efficiency of daidzin family in soymilk [13]: 6.9%
Decomposition efficiency of daidzin family in roasted soy flour [14]: 5.4%
Decomposition efficiency of daidzin family in soymilk [14]: 6.9%
Decomposition efficiency of daidzin family in roasted soy flour [15]: 49.4%
Decomposition efficiency of daidzin family in soymilk [15]: 36.0%
Decomposition efficiency of daidzin family in concentrated soybean protein [16]: 52.5%
Decomposition efficiency of daidzin family in defatted soybean [16]: 42.2%
Decomposition efficiency of daidzin family in concentrated soybean protein [17]: 1.0%
Decomposition efficiency of daidzin family in defatted soybean [17]: not detected
Decomposition efficiency of daidzin family in concentrated soybean protein [18]: not detected
Decomposition efficiency of daidzin family in defatted soybean [18]: not detected
Decomposition efficiency of daidzin family in concentrated soybean protein [19]: not detected
Decomposition efficiency of daidzin family in defatted soybean [19]: not detected
Decomposition efficiency of daidzin family in concentrated soybean protein [20]: 54.6%
Decomposition efficiency of daidzin family in defatted soybean [20]: not detected
Decomposition efficiency of daidzin family in roasted soy flour [21]: 48.8%
Decomposition efficiency of daidzin family in soymilk [21]: 34.2%
Decomposition efficiency of daidzin family in roasted soy flour [22]: not detected
Decomposition efficiency of daidzin family in soymilk [22]: not detected
Decomposition efficiency of daidzin family in roasted soy flour [23]: not detected
Decomposition efficiency of daidzin family in soymilk [23]: not detected
Decomposition efficiency of daidzin family in roasted soy flour [24]: not detected
Decomposition efficiency of daidzin family in soymilk [24]: not detected
Decomposition efficiency of daidzin family in roasted soy flour [25]: 51.1%
Decomposition efficiency of daidzin family in soymilk [25]: 40.7%
Decomposition efficiency of daidzin family in concentrated soybean protein [26]: 52.3%
Decomposition efficiency of daidzin family in defatted soybean [26]: 40.5%
Decomposition efficiency of daidzin family in concentrated soybean protein [27]: 1.8%
Decomposition efficiency of daidzin family in defatted soybean [27]: not detected
Decomposition efficiency of daidzin family in concentrated soybean protein [28]: 1.7%
Decomposition efficiency of daidzin family in defatted soybean [28]: not detected
Decomposition efficiency of daidzin family in concentrated soybean protein [29]: 1.7%
Decomposition efficiency of daidzin family in defatted soybean [29]: not detected
Decomposition efficiency of daidzin family in concentrated soybean protein [30]: 53.2%
Decomposition efficiency of daidzin family in defatted soybean [30]: 32.8%
Decomposition efficiency of daidzin family in roasted soy flour [31]: 48.6%
Decomposition efficiency of daidzin family in soymilk [31]: 34.1%
Decomposition efficiency of daidzin family in roasted soy flour [32]: not detected
Decomposition efficiency of daidzin family in soymilk [32]: not detected
Decomposition efficiency of daidzin family in roasted soy flour [33]: not detected
Decomposition efficiency of daidzin family in soymilk [33]: not detected
Decomposition efficiency of daidzin family in roasted soy flour [34]: not detected
Decomposition efficiency of daidzin family in soymilk [34]: not detected
Decomposition efficiency of daidzin family in roasted soy flour [35]: 49.7%
Decomposition efficiency of daidzin family in soymilk [35]: 48.7%
Decomposition efficiency of daidzin family in concentrated soybean protein [36]: 52.4%
Decomposition efficiency of daidzin family in defatted soybean [36]: 40.5%
Decomposition efficiency of daidzin family in concentrated soybean protein [37]: 22.6%
Decomposition efficiency of daidzin family in defatted soybean [37]: 7.8%
Decomposition efficiency of daidzin family in concentrated soybean protein [38]: 23.3%
Decomposition efficiency of daidzin family in defatted soybean [38]: 19.2%
Decomposition efficiency of daidzin family in concentrated soybean protein [39]: 25.5%
Decomposition efficiency of daidzin family in defatted soybean [39]: 30.4%
Decomposition efficiency of daidzin family in concentrated soybean protein [40]: 54.5%
Decomposition efficiency of daidzin family in defatted soybean [40]: 60.9%
Decomposition efficiency of daidzin family in roasted soy flour [41]: 48.6%
Decomposition efficiency of daidzin family in soymilk [41]: 33.9%
Decomposition efficiency of daidzin family in roasted soy flour [42]: 3.2%
Decomposition efficiency of daidzin family in soymilk [42]: 8.9%
Decomposition efficiency of daidzin family in roasted soy flour [43]: 4.4%
Decomposition efficiency of daidzin family in soymilk [43]: 23.9%
Decomposition efficiency of daidzin family in roasted soy flour [44]: 12.5%
Decomposition efficiency of daidzin family in soymilk [44]: 42.9%
Decomposition efficiency of daidzin family in roasted soy flour [45]: 51.3%
Decomposition efficiency of daidzin family in soymilk [45]: 69.5%

Decomposition efficiency of genistin family in defatted soybean [2]: 47.4%
Decomposition efficiency of genistin family in defatted soybean [3]: 50.2%
Decomposition efficiency of genistin family in defatted soybean [4]: 46.6%
Decomposition efficiency of genistin family in defatted soybean [5]: 50.2%
Decomposition efficiency of genistin family in defatted soybean [6]: 14.5%
Decomposition efficiency of genistin family in defatted soybean [7]: 49.2%
Decomposition efficiency of genistin family in defatted soybean [8]: 51.8%
Decomposition efficiency of genistin family in defatted soybean [9]: 54.6%
Decomposition efficiency of genistin family in defatted soybean [10]: 50.4%
Decomposition efficiency of genistin family in defatted soybean [17]: 50.5%
Decomposition efficiency of genistin family in defatted soybean [18]: 53.7%
Decomposition efficiency of genistin family in defatted soybean [19]: 56.5%
Decomposition efficiency of genistin family in defatted soybean [20]: 51.9%
Decomposition efficiency of genistin family in defatted soybean [26]: 14.5%
Decomposition efficiency of genistin family in defatted soybean [27]: 49.9%
Decomposition efficiency of genistin family in defatted soybean [28]: 51.8%
Decomposition efficiency of genistin family in defatted soybean [29]: 54.5%
Decomposition efficiency of genistin family in defatted soybean [30]: 30.7%
Decomposition efficiency of genistin family in defatted soybean [36]: 14.5%
Decomposition efficiency of genistin family in defatted soybean [37]: 44.9%
Decomposition efficiency of genistin family in defatted soybean [38]: 43.3%
Decomposition efficiency of genistin family in defatted soybean [39]: 41.3%
Decomposition efficiency of genistin family in defatted soybean [40]: 19.6%
maximum isolation of aglycons (concentrated soybean protein): about 61%
maximum isolation of aglycons (defatted soybean): about 57%
maximum isolation of aglycons (soy flour): about 74%
maximum isolation of aglycons (soymilk): about 80%
SMILES: O=c1c(-c2ccc(O)cc2)coc2cc(O)cc(O)c12 [genistein]
